Results taken from patent publication US4064260A, “Anti-inflammatory diarylimidazothiazoles and their corresponding S-oxides” (E. I. Du Pont de Nemours and Company, priority 1976, dated 1977).

Experiments:
[1] = system: Adjuvant-Induced Arthritis in Rats; assay: Established Adjuvant-Induced Arthritis in Rats (paw volume); assay type: in vivo, Charles River Lewis male rats; details: 24 h; rat; oral; dosed that day and 6 following days; ED50% decrease from control paw volume (uninjected left hind paw), one day after last dose
Experimental: A standard procedure for detecting and comparing the anti-inflammatory activity of compounds in this series for which there is good correlation with human efficacy is the adjuvant-induced arthritis test in rats.
Established Adjuvant-Induced Arthritis in Rats
Charles River Lewis male rats (130-150 grams) are injected subcutaneously in the plantar area of the right hind paw with 0.1 ml of adjuvant (Difco heat-killed, lyophilized Myobacterium butyricum suspended in mineral oil 5 mg./ml.). 20 Non-arthritic controls are injected with mineral oil. The animals are held for 2 weeks to allow development of arthritis. Paw volumes (uninjected, left hand paw) are measured and the adjuvant injected rats are culled and distributed to treatment groups of 10 of equal disease severity. Non-arthritic controls are distributed to 2 groups of 10. The rats are given oral doses of compound or PVA-Acacia (10 ml./kg.) on that day and on the 6 following days. One day after the last dose the paw volumes (uninjected, left hind paw) are measured using a Ugo Basile Volume Differential Meter Model 7101. [formula]
Dose-response regression lines of the % decrease are plotted on semi-log paper by visual fit and the ED50% decrease from control paw volume is determined by inspection.

[2] = system: phenylquinone writhing in mice; assay: phenylquinone writhing test in mice (analgesic); assay type: in vivo, Carworth CF-lS male mice; details: po; mouse; intubated in 0.5% methylcellulose; phenylquinone 1.25 mg/kg i.p. 30 min later; observed 30-40 min after antagonist
Experimental: An equally reliable test that is used for testing analgesic activity of compounds is the phenylquinone writhing test in mice.
Writhing was caused in mice by the intraperitoneal injection of phenyl-p-benzoquinone (Siegmund, E., Cadmus, R., Lu, G., Proc. Soc. Exp. Biol, and Med., 95, 729, 1957).
Groups of 10 or more Carworth CF-lS male mice, 18-21 g each, were fasted 17-21 hours and were intubated with the writhing antagonist at several dose levels in 0.5% methylcellulose. 30 Minutes later the mice were challenged with phenylquinone (1.25 mg./kg., i.p., dissolved in ethanol and diluted to 5% ethanol with distilled water at 40° C.). […] ED50' s were obtained by the Litchfield and Wilcoxon Method (Litchfield, J. T. and Wilcoxon, F., J.P.E.T., 96, 99 1949) and the Weil moving average method (Weil, C., Biometrics, 8 ,249 1952). Peak time studies were also done with some of these compounds and their peak time ED50' s were recorded.

SMILES | ED50 [1] [mg/kg] | ED50 [2] [mg/kg]
COc1ccc(-c2nc3n(c2-c2ccc(OC)cc2)C(F)C(F)(F)S3)cc1 (stereo not shown) [0 F F H F, 2,3-Dihydro-2,2,3-trifluoro-5,6-bis(p-methoxyphenyl)imidazo-[2,1-b]thiazole] | 11 | –
COc1ccc(-c2nc3n(c2-c2ccc(OC)cc2)CCS3)cc1 [0 H H H H, 2,3-Dihydro-5,6-bis(p-methoxyphenyl)imidazo[2,1-b]thiazole] | 5.5 | 64
COc1ccc(-c2nc3n(c2-c2ccc(OC)cc2)CC[S+]3[O-])cc1 (stereo not shown) [1 H H H H, 2,3-Dihydro-5,6-bis(p-methoxyphenyl)imidazo[2,1-b]thiazole S-oxide] | 7.4 | 8.7
COc1ccc(-c2nc3n(c2-c2ccc(OC)cc2)CCS3(=O)=O)cc1 [2 H H H H, 2,3-Dihydro-5,6-bis(p-methoxyphenyl)imidazo[2,1-b]thiazole S,S-dioxide] | 8 | > 130
